Drawing on ChEMBL document CHEMBL1154921, “Phenylpropanoyl esters from Horseweed (Conyza canadensis) and their inhibitory effects on catecholamine secretion” (J Nat Prod, 2010), this text covers IC50 for one compound.

Assay [1] in a line: Inhibition of acetylcholine-induced calcium flux in calcium 4 reagent loaded bovine chromaffin cells at 1 to 100 uM. In kind it is functional. To be noted: Bos taurus. (In general: A change in cytosolic calcium serves as a functional read-out for many receptors and channels.)
The nature of assay [2]: Inhibition of acetylcholine-induced catecholamine secretion in bovine chromaffin cells after 10 mins by HPLC coupled electrochemical detector. In kind it is functional, cell-based. To be noted: Bos taurus.

Consider `COC(=O)[C@]12C[C@@H](OC(=O)/C=C/c3ccc(O)c(OC)c3)[C@@H](O)[C@H](O1)[C@@H](COC(=O)/C=C/c1ccc(O)c(O)c1)O2` (relative stereo), for which the IC50 (usually the midpoint of a concentration-inhibition curve) in assay [1] came out at 59.8 µM; in assay [2], 94.7 µM.
